Results on ten cell lines are retold here after the supplement of paper PMC10307832.

Compound in the experiment “Quizartinib + AZD7762”: CC(C)(C)c1cc(NC(=O)Nc2ccc(-c3cn4c(n3)sc3cc(OCCN5CCOCC5)ccc34)cc2)no1 [Quizartinib] + NC(=O)Nc1cc(-c2cccc(F)c2)sc1C(=O)N[C@H]1CCCNC1 [AZD7762] (partner 0.2 µM)
Nature of the experiment: relative viability (nuclei count vs DMSO), 5 days (fraction); higher = more cells survive. The method in brief: (§1)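 Lung cancer cell lines in 1536-well plates were dosed by pin tool the day after seeding, either with one drug alone or with a fixed anchor-drug dose plus five library-drug doses (not always all listed) in √10 steps. After 5 days, cells were fixed and their nuclei stained in one step (final 0.05% Triton X-100, 1% formaldehyde, 1 ug/ml Hoechst), then counted on 4× images. Relative viability is the nuclei count in treated wells divided by that in vehicle wells. Values are medians of duplicate plates.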

Compound in the experiment “Quizartinib + Vorinostat”: CC(C)(C)c1cc(NC(=O)Nc2ccc(-c3cn4c(n3)sc3cc(OCCN5CCOCC5)ccc34)cc2)no1 [Quizartinib] + O=C(CCCCCCC(=O)Nc1ccccc1)NO [Vorinostat] (partner 1 µM)
Described as above. The method in brief:
as §1

With 201T, the relative viability turned out to be 0.611 in the experiment with Quizartinib + AZD7762 (first compound 0.001 µM); 0.573 in the experiment with Quizartinib + AZD7762 (first compound 0.003162 µM); 0.653 with Quizartinib + AZD7762 (first compound 0.01 µM); 0.61 with Quizartinib + AZD7762 (first compound 0.03162 µM); 0.646 with Quizartinib + AZD7762 (first compound 0.1 µM); 1 with Quizartinib + Vorinostat (first compound 0.001 µM). Further, the relative viability with Quizartinib + Vorinostat (first compound 0.003162 µM) stood at 0.982; in the experiment with Quizartinib + Vorinostat (first compound 0.01 µM), 0.963; with Quizartinib + Vorinostat (first compound 0.03162 µM) it was 0.965; in the experiment with Quizartinib + Vorinostat (first compound 0.1 µM), 0.992.
As to A-427, the relative viability with Quizartinib + AZD7762 (first compound 0.001 µM) was found to be 0.467; with Quizartinib + AZD7762 (first compound 0.003162 µM), 0.676; with Quizartinib + AZD7762 (first compound 0.01 µM), 0.722; with Quizartinib + AZD7762 (first compound 0.03162 µM) it was 0.639; with Quizartinib + AZD7762 (first compound 0.1 µM) it was 0.718; with Quizartinib + Vorinostat (first compound 0.001 µM), 0.609. The relative viability is 0.757 in the experiment with Quizartinib + Vorinostat (first compound 0.003162 µM), 0.818 with Quizartinib + Vorinostat (first compound 0.01 µM), 0.767 in the experiment with Quizartinib + Vorinostat (first compound 0.03162 µM) and 0.874 with Quizartinib + Vorinostat (first compound 0.1 µM).
Take ABC-1: the relative viability was 0.717 with Quizartinib + AZD7762 (first compound 0.001 µM); 0.783 in the experiment with Quizartinib + AZD7762 (first compound 0.003162 µM); 0.784 with Quizartinib + AZD7762 (first compound 0.01 µM); 0.913 with Quizartinib + AZD7762 (first compound 0.03162 µM); 0.827 in the experiment with Quizartinib + AZD7762 (first compound 0.1 µM); 1.24 in the experiment with Quizartinib + Vorinostat (first compound 0.003162 µM). Further, the relative viability came out at 0.963 with Quizartinib + Vorinostat (first compound 0.01 µM), 0.793 in the experiment with Quizartinib + Vorinostat (first compound 0.03162 µM) and 1.65 in the experiment with Quizartinib + Vorinostat (first compound 0.1 µM).
With BEN, the relative viability with Quizartinib + AZD7762 (first compound 0.001 µM) was determined as 0.66; with Quizartinib + AZD7762 (first compound 0.003162 µM), 0.766; with Quizartinib + AZD7762 (first compound 0.01 µM) it was 0.563; in the experiment with Quizartinib + AZD7762 (first compound 0.03162 µM), 0.582; with Quizartinib + AZD7762 (first compound 0.1 µM), 0.676; with Quizartinib + Vorinostat (first compound 0.001 µM), 0.533. For the same cell line, the relative viability worked out at 0.532 with Quizartinib + Vorinostat (first compound 0.003162 µM), 0.565 with Quizartinib + Vorinostat (first compound 0.01 µM), 0.56 with Quizartinib + Vorinostat (first compound 0.03162 µM) and 0.602 in the experiment with Quizartinib + Vorinostat (first compound 0.1 µM).
Regarding CAL-12T, the relative viability with Quizartinib + AZD7762 (first compound 0.001 µM) came to 0.632; with Quizartinib + AZD7762 (first compound 0.003162 µM) it was 0.663; with Quizartinib + AZD7762 (first compound 0.01 µM), 0.759; in the experiment with Quizartinib + AZD7762 (first compound 0.03162 µM), 0.495; with Quizartinib + AZD7762 (first compound 0.1 µM), 0.689; with Quizartinib + Vorinostat (first compound 0.001 µM), 0.684. For the same cell line, the relative viability turned out to be 0.711 with Quizartinib + Vorinostat (first compound 0.003162 µM), 0.914 in the experiment with Quizartinib + Vorinostat (first compound 0.01 µM), 0.511 with Quizartinib + Vorinostat (first compound 0.03162 µM) and 0.943 in the experiment with Quizartinib + Vorinostat (first compound 0.1 µM).
Take COR-L23: the relative viability with Quizartinib + Vorinostat (first compound 0.001 µM) turned out to be 0.387; with Quizartinib + Vorinostat (first compound 0.003162 µM), 0.355; with Quizartinib + Vorinostat (first compound 0.01 µM) it was 0.507; with Quizartinib + Vorinostat (first compound 0.03162 µM), 0.385; in the experiment with Quizartinib + Vorinostat (first compound 0.1 µM), 0.504.
As to COR-L 105, the relative viability was determined as 0.266 in the experiment with Quizartinib + Vorinostat (first compound 0.001 µM), 0.793 with Quizartinib + Vorinostat (first compound 0.003162 µM), 0.871 in the experiment with Quizartinib + Vorinostat (first compound 0.01 µM) and 0.881 with Quizartinib + Vorinostat (first compound 0.1 µM).
ChaGo-K-1: the relative viability in the experiment with Quizartinib + AZD7762 (first compound 0.003162 µM) was found to be 0.841; with Quizartinib + AZD7762 (first compound 0.01 µM), 0.981; in the experiment with Quizartinib + AZD7762 (first compound 0.03162 µM) it was 0.84; with Quizartinib + AZD7762 (first compound 0.1 µM), 0.932; with Quizartinib + Vorinostat (first compound 0.003162 µM) it was 0.709; in the experiment with Quizartinib + Vorinostat (first compound 0.01 µM), 0.758. The relative viability with Quizartinib + Vorinostat (first compound 0.03162 µM) was 0.719; with Quizartinib + Vorinostat (first compound 0.1 µM), 0.773.
In the case of EKVX, the relative viability with Quizartinib + AZD7762 (first compound 0.003162 µM) is 0.621; in the experiment with Quizartinib + AZD7762 (first compound 0.01 µM), 0.744; in the experiment with Quizartinib + AZD7762 (first compound 0.03162 µM), 0.67; in the experiment with Quizartinib + AZD7762 (first compound 0.1 µM), 0.841; with Quizartinib + Vorinostat (first compound 0.003162 µM), 0.815; in the experiment with Quizartinib + Vorinostat (first compound 0.01 µM) it was 0.631. The relative viability with Quizartinib + Vorinostat (first compound 0.03162 µM) was determined as 0.69; in the experiment with Quizartinib + Vorinostat (first compound 0.1 µM), 0.634.
Consider EMC-BAC-2, for which the relative viability in the experiment with Quizartinib + AZD7762 (first compound 0.001 µM) is 0.909; with Quizartinib + AZD7762 (first compound 0.003162 µM), 1.21; with Quizartinib + AZD7762 (first compound 0.01 µM) it was 1.16; with Quizartinib + AZD7762 (first compound 0.1 µM), 1.19; with Quizartinib + Vorinostat (first compound 0.001 µM) it was 0.433; in the experiment with Quizartinib + Vorinostat (first compound 0.003162 µM) it was 0.486. Also, the relative viability with Quizartinib + Vorinostat (first compound 0.01 µM) was 0.288; with Quizartinib + Vorinostat (first compound 0.1 µM), 0.544.
